The record followed here is patent US20230159445A1, “STAT INHIBITORY COMPOUNDS AND COMPOSITIONS” (JANPIX LIMITED, priority 2020, published 2023).

Data set [1] deals with normal human fibroblast (NHF) cells. Put plainly: NHF Cell Cytotoxicity Assay (CellTiter-Blue, 72 h), off-target effects. Format: cell-based. The following applies: Homo sapiens, Fibroblast; pooled NHF cells. In outline:
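Normal human fibroblasts (1×10^4/well, 10% FBS medium) were treated after 24 h with inhibitor at 0.097656-50 μM for 72 h at 37° C. Viability was read by CellTiter-Blue fluorescence (560/590 nm), normalized to DMSO control, and IC50 obtained from a variable-slope log(inhibitor)-response fit of four replicates.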
Background: Resazurin is reduced to fluorescent resorufin, in cell work by metabolically active cells.

For a further data set, the system named is MV4-11 cells. The data set can be described thus: MV4-11 Cell Cytotoxicity Assay (CellTiter-Blue, 72 h). It is filed as cell-based, human. The following applies: Homo sapiens, MV4-11; MV-4-11 cells. The gist of the method: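 Cells seeded 24 h before treatment, then exposed 72 h at 37° C, 5% CO2 to inhibitors in triplicate, top concentration 50 μM with 1:2 serial dilutions (0.5% DMSO vehicle). Viability read by CellTiter-Blue fluorescence at 560/590 nm after 1 h.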

In another data set the test system is glutathione (GSH). The data set can be described thus: Reactivity Profiling with Glutathione (GSH), half-life by HPLC. Particulars: 5 mM glutathione (GSH) in IMDM with 10% FBS.

Description for glutathione (GSH): 3.5 μL of 5 mM stocking solution of the inhibitors in DMSO was added to 697.5 μL of Iscove's Modified Dulbecco's Medium (IMDM) supplemented with 10% FBS and antibiotic antimycotic solution, with 5 mM glutathione to afford a final concentration of 25 μM inhibitor with 0.5% DMSO. The solution was then immediately placed in the sample tray at 25° C. […] For each inhibitor, its peak is integrated at different time points and compared to the time zero injection in order to obtain a percentage remaining. Half-life is calculated according to a first order reaction kinetic taking into account those time points for which remaining percentage of inhibitor is above 40%, using the formula: t½=Ln(2)/k, where k is the slope of the linear plot of Ln[Inhibitor] vs time, according to the formula: Ln[A]=Ln[A]0−kt, where [A] is the value resulting from the integration at each time point, [A]0 the value at time zero, and t the time. For each inhibitor, both replicates are averaged and the resulting t½ reported.

In the case of `Cc1cc(C(=O)O)cc(C)c1N(Cc1cc(C2CC2)cc(C2CC2)c1)C(=O)CN(Cc1c(F)cc(F)cc1F)S(=O)(=O)c1c(F)c(F)c(F)c(F)c1F` [Compound 1203, 4-(N-(3,5-dicyclopropylbenzyl)-2-(N-(2,4,6-trifluorobenzyl)-(2,3,4,5,6-pentafluoro-phenyl)sulfonamido)acetamido)-3,5-dimethylbenzoic acid], the results for the IC50 (in data set [1]; in the data set with MV4-11 cells) were 1 to 10000 nM and 0.01 to 316 nM, respectively. The molecule further showed a half-life at 25 μM in the data set on glutathione (GSH) of 4.12 to 9.23 h.

Turning to `O=C(O)c1ccc(N(Cc2cc(C3CC3)cc(C3CC3)c2)C(=O)CN(Cc2cnccc2C(F)(F)F)S(=O)(=O)c2c(F)c(F)c(F)c(F)c2F)c(OC2CCCC2)c1` [Compound 1207, 3-(cyclopentyloxy)-4-(N-(3,5-dicyclopropylbenzyl)-2-(N-((4-(trifluoromethyl)pyridin-3-yl)methyl)-(2,3,4,5,6-pentafluoro-phenyl)sulfonamido)acetamido)benzoic acid], the IC50 lay within 10000 to 20000 nM in data set [1] and 0.01 to 316 nM with MV4-11 cells. Further, the half-life at 25 μM in the data set on glutathione (GSH) fell in the range of 4.12 to 9.23 h.

As for `CCOc1cc(C(=O)O)cc(F)c1N(Cc1cc(C2CC2)cc(C2CC2)c1)C(=O)CN(Cc1ccc(F)cc1Cl)S(=O)(=O)c1c(F)c(F)c(F)c(F)c1F` [Compound 1276, 4-(2-((N-(2-chloro-4-fluorobenzyl)-2,3,4,5,6-pentafluorophenyl)sulfonamido)-N-(3,5-dicyclopropylbenzyl)acetamido)-3-ethoxy-5-fluorobenzoic acid], the values for the IC50 (in data set [1]; in the data set on MV4-11 cells) were 10000 to 20000 nM and 0.01 to 316 nM, respectively. The half-life at 25 μM with glutathione (GSH) is 4.12 to 9.23 h.

On to `O=C(O)c1ccc(N(Cc2cc(C3CC3)cc(C3CC3)c2)C(=O)CN(Cc2ccc(F)cc2Cl)S(=O)(=O)c2c(F)c(F)c(F)c(F)c2F)c(OC2CC2)c1` [Compound 1167, 4-(2-(N-(2-chloro-4-fluorobenzyl)-(2,3,4,5,6-pentafluorophenyl)sulfon-amido)-N-(3,5-dicyclopropylbenzyl)acetamido)-3-cyclopropoxybenzoic acid], for which the IC50 in data set [1] is 10000 to 20000 nM; in the data set on MV4-11 cells, 0.01 to 316 nM. Further, the half-life at 25 μM in the data set on glutathione (GSH) lay in the range of 4.12 to 9.23 h.

Regarding `CCOc1cc(C(=O)O)ccc1N(Cc1cc(C2CC2)cc(C2CC2)c1)C(=O)CN(Cc1ccccc1Cl)S(=O)(=O)c1c(F)c(F)c(F)c(F)c1F` [Compound 1278, 4-(2-((N-(2-chlorobenzyl)-2,3,4,5,6-pentafluorophenyl)sulfonamido)-N-(3,5-dicyclopropylbenzyl)acetamido)-3-ethoxybenzoic acid], the IC50 lay within 10000 to 20000 nM in data set [1] and 0.01 to 316 nM in the data set on MV4-11 cells. Further, the half-life at 25 μM in the data set with glutathione (GSH) was in the range of 2.37 to 4.12 h.

Turning to `CN(C)c1cc(C(=O)O)ccc1N(Cc1cc(C2CC2)cc(C(C)(C)C)c1)C(=O)CN(Cc1ccc(Cl)cc1)S(=O)(=O)c1c(F)c(F)c(F)c(F)c1F` [Compound 1041, 4-(N-(3-(tert-butyl)-5-cyclopropylbenzyl)-2-(N-(4-chlorobenzyl)-(2,3,4,5,6-pentafluorophenyl)sulfon-amido)acetamido)-3-(dimethylamino)benzoic acid], the IC50 was in the range of 20000 to 30000 nM in data set [1] and 316 to 1000 nM with MV4-11 cells. The same molecule gave a half-life at 25 μM in the data set with glutathione (GSH) of 9.23 to 1670 h.

`CC(C)(C)c1cc(CN(C(=O)CN(Cc2ncccc2C(F)(F)F)S(=O)(=O)c2c(F)c(F)c(F)c(F)c2F)c2ccc(C(=O)O)cc2OC2CC2)cc(C2CC2)c1` [Compound 1119, 4-(N-(3-(tert-butyl)-5-cyclopropylbenzyl)-2-(N-((3-(trifluoromethyl)pyridin-2-yl)methyl)-(2,3,4,5,6-pentafluoro-phenyl)sulfonamido)acetamido)-3-cyclopropoxybenzoic acid]: the IC50 lay in the range of 30000 to 100000 nM in data set [1] and 316 to 1000 nM in the data set on MV4-11 cells. Further, in the data set on glutathione (GSH), the half-life at 25 μM lay within 4.12 to 9.23 h.

Regarding `COc1cc(C(=O)O)ccc1N(Cc1cc(C2CC2)cc(C(C)(C)C)c1)C(=O)CN(Cc1ccc(Cl)cc1)S(=O)(=O)c1c(F)c(F)c(F)c(F)c1F` [Compound 1016, 4-(N-(3-(tert-butyl)-5-cyclopropylbenzyl)-2-(N-(4-chlorobenzyl)-(2,3,4,5,6-pentafluorophenyl)sulfon-amido)acetamido)-3-methoxybenzoic acid], the results for the IC50 (in data set [1]; with MV4-11 cells) were 20000 to 30000 nM and 316 to 1000 nM, respectively. Further, in the data set on glutathione (GSH), the half-life at 25 μM lay within 4.12 to 9.23 h.

As for `CCCCOc1cc(C(=O)O)ccc1N(Cc1cc(C2CC2)cc(C2CC2)c1)C(=O)CN(Cc1ccc(F)cc1Cl)S(=O)(=O)c1c(F)c(F)c(F)c(F)c1F` [Compound 1254, 3-butoxy-4-(2-(N-(2-chloro-4-fluorobenzyl)-(2,3,4,5,6-pentafluorophenyl)sulfon-amido)-N-(3,5-dicyclopropylbenzyl)acetamido)benzoic acid], the IC50 was 20000 to 30000 nM in data set [1] and 0.01 to 316 nM in the data set with MV4-11 cells. Moreover, in the data set on glutathione (GSH), the half-life at 25 μM is 9.23 to 1670 h.

For the molecule `COc1cc(C(=O)O)ccc1N(Cc1cc(C2CC2)cc(C2CC2)c1)C(=O)CN(Cc1c(F)cc(F)cc1F)S(=O)(=O)c1c(F)c(F)c(F)c(F)c1F` [Compound 1148, 4-(N-(3,5-dicyclopropylbenzyl)-2-(N-(2,4,6-trifluorobenzyl)-(2,3,4,5,6-pentafluoro-phenyl)sulfonamido)acetamido)-3-methoxybenzoic acid], the figures for the IC50 (in data set [1]; in the data set with MV4-11 cells) were 1 to 10000 nM and 0.01 to 316 nM, respectively. The half-life at 25 μM with glutathione (GSH) fell in the range of 2.37 to 4.12 h.

For `COc1cc(C(=O)O)ccc1N(Cc1cc(C2CC2)cc(C(C)(C)C)c1)C(=O)CN(Cc1ccc(F)cc1Cl)S(=O)(=O)c1c(F)c(F)c(F)c(F)c1F` [Compound 1143, 4-(N-(3-(tert-butyl)-5-cyclopropylbenzyl)-2-(N-(2-chloro-4-fluorobenzyl)-(2,3,4,5,6-pentafluorophenyl)sulfon-amido)acetamido)-3-methoxybenzoic acid], the IC50 in data set [1] was in the range of 10000 to 20000 nM; in the data set on MV4-11 cells, 0.01 to 316 nM. The molecule further had a half-life at 25 μM in the data set with glutathione (GSH) of 4.12 to 9.23 h.

`CCOc1cc(C(=O)O)ccc1N(Cc1cc(C2CC2)cc(C2CC2)c1)C(=O)CN(Cc1ccccc1C#N)S(=O)(=O)c1c(F)c(F)c(F)c(F)c1F` [Compound 1273, 4-(2-((N-(2-cyanobenzyl)-2,3,4,5,6-pentafluorophenyl)sulfonamido)-N-(3,5-dicyclopropylbenzyl)acetamido)-3-ethoxybenzoic acid]: the IC50 was 10000 to 20000 nM in data set [1] and 0.01 to 316 nM in the data set with MV4-11 cells. Besides, the half-life at 25 μM in the data set on glutathione (GSH) lay in the range of 0.00167 to 2.37 h.

Take `CCOc1cc(C(=O)O)ccc1N(Cc1cc(C2CC2)cc(C(C)(C)C)c1)C(=O)CN(Cc1ccc(F)cc1Cl)S(=O)(=O)c1c(F)c(F)c(F)c(F)c1F` [Compound 1227, 4-(N-(3-(tert-butyl)-5-cyclopropylbenzyl)-2-(N-(2-chloro-4-fluorobenzyl)-(2,3,4,5,6-pentafluorophenyl)sulfon-amido)acetamido)-3-ethoxybenzoic acid]: the IC50 in data set [1] fell in the range of 10000 to 20000 nM; in the data set on MV4-11 cells, 0.01 to 316 nM. Further, in the data set on glutathione (GSH), the half-life at 25 μM lay in the range of 4.12 to 9.23 h.

`COc1cc(C(=O)O)ccc1N(Cc1cc(C2CC2)cc(C(C)(C)C)c1)C(=O)CN(Cc1c(F)cccc1F)S(=O)(=O)c1c(F)c(F)c(F)c(F)c1F` [Compound 1145, 4-(N-(3-(tert-butyl)-5-cyclopropylbenzyl)-2-(N-(2,6-difluorobenzyl)-(2,3,4,5,6-pentafluorophenyl)sulfon-amido)acetamido)-3-methoxybenzoic acid]: the IC50 fell in the range of 1 to 10000 nM in data set [1] and 0.01 to 316 nM in the data set with MV4-11 cells. In addition, the half-life at 25 μM in the data set on glutathione (GSH) lay in the range of 2.37 to 4.12 h.

One may read the IC50 as the concentration at which inhibition is half-maximal. One may read the half-life as the time in which the quantity being followed falls by half. A high value points to slow loss.
